# Reference: patent US20210023120A1, “COMPOSITIONS FOR THE DELIVERY OF tRNA AS NANOPARTICLES AND METHODS OF USE THEREWITH” (The Board of Regents of the University of Texas System, priority 2016, published 2021)
# Test system: p53
# Assay: Nanoparticle carrier screen in Calu6 cells (p53 Western blot)
# Assay type: cell-based
# Details: nmP53 (R196X), exogenous tRNAArg/OP, 48 hr exposure, FIGS. 6B, 9, 10, 12
# Protocol: Calu6 cells were seeded at a density of 500,000 cells per well in a 6-well format and allowed to attach over night. For plasmid DNA, 1 μg was transfected using 3 μl of Lipofectamine 2000 using manufacturer recommend protocols. For tRNA^Arg/RNAiMax, 4 μg was transfected using 3 μl of RNAiMax using manufacturer recommended protocols. Particles were diluted in Opti-MEM (Invitrogen), G418 (50 μg) and PTC124 ([…]) was added directly to the media. Nanoparticles were prepared by mixing all delivery components in ethanol, followed by rapid mixing with tRNA in 10 mM citrate buffer pH 4.3, such that the final mole ratio was 25:1 carrier:siRNA, and the carrier mixture of the formulation consisted of molar ratios 50:38:10:2 carrier: cholesterol: DSPC: PEG-lipid. […] After 48 hr, cells were lysed directly in 2× Sample Buffer ((Tris-HCL 250 mM, pH 6.8, 20% Glycerol, 2.5% SDS, 0.1% Bromophenol blue). Cell lysate proteins were separated by electrophoresis on 10% (wt/vol) polyacrylamide gels using a Tris-glycine buffering system and transferred to polyyinylidene fluoride Immobilon membranes (EMD Millipore). Western blot analysis was performed using primary p53 antibody (Santa Cruz Biotechnology, Inc) actin antibody (EMD Millipore), and secondary antibody IRdye-68ORD (Li-Cor) and imaged/quantified using a Li-Cor Odyssey CLx (Li-Cor).
row,Compound,p53 expression (Western blot)
1,CN[C@@H]1[C@@H](O)[C@@H](O[C@@H]2[C@@H](O)[C@H](O[C@H]3O[C@H]([C@@H](C)O)[C@@H](O)[C@H](O)[C@H]3N)[C@@H](N)C[C@H]2N)OC[C@]1(C)O [G418],only minimal p53 expression
2,O=C(O)c1cccc(-c2noc(-c3ccccc3F)n2)c1 [PTC124],only minimal p53 expression
